Data published in patent publication US5827715A, “Heat resistant maltose phosphorylase, process for preparation thereof, bacteria used for preparation thereof, and methods for using the enzyme” (Showa Sangyo Co., Ltd., priority 1995, dated 1998).
Where two headings read alike, the source gives them in different places.

Assays:
[1] = target: T1, heat resistant trehalose phosphorylase (Geobacillus stearothermophilus, UniProt Q8GRC3); test: biochemical; assay type: biochemical, Bacillus stearothermophilus SK-1; details: for activity at 1000 µM: read-out: Relative activity (%); for inhibition of the activity: 1 mM inhibitor, heat resistant trehalose phosphorylase
T1 construct: heat resistant trehalose phosphorylase which Bacillus stearothermophilus SK-1 found by the present inventors produces; made in house; host or cells: Bacillus stearothermophilus SK-1 (FERM BP-5594), the producing strain itself
Text: As the heat resistant maltose phosphorylase in the above process, there can be used the same ones as in the above process for preparation of β-glucose-1-phosphoric acid can be used. As the heat resistant trehalose phosphorylase, any one can be used so long as it can produce trehalose from maltose and phosphoric acid or a phosphate salt at one of the above reaction temperatures and at one of the above pH values, with the aid of the heat resistant maltose phosphorylase. […] The SK-1 strain was first deposited on Sep. 29, 1994 with National Institute of Bioscience and Human Technology, Agency of Industrial Science and Technology, the Ministry of International Trade and Industry, Japan under an accession number of FERM P-14567, and then transferred there to deposit according to Budapest Treaty on microorganisms on Jul. 17, 1996, and is assigned an accession number of FERM BP-5594. An example of preparation of the above heat resistant trehalose phosphorylase is shown in Example 4 (crude enzyme) and Reference example 1 (purified enzyme).
(§1) In this connection, trehalose phosphorylase activity was assayed by the following method. An enzyme solution (0.4 ml), 0.06 ml of 0.5M potassium phosphate-citric acid buffer (pH 6.0), 0.6 ml of 2 w/v % trehalose and 0.14 ml of distilled water were mixed, and reaction was carried out at 60° C. for 20 minutes and ceased by boiling for 10 minutes. Then, 0.02 ml of a sample was taken from the reaction-ceased solution, 3 ml of a reagent for glucose examination (Glucose CII-Test Wako; Wako Pure Chemical Industries, Ltd.) was added, reaction was carried out at room temperature for 20 minutes, the absorbance at 505 nm was measured using a spectrophotometer, and the amount of glucose formed in the reaction solution was determined from the measured value. As to the definition of the trehalose phosphorylase activity, the amount of the enzyme necessitated to phosphorolyze 1 μmol of trehalose in one minute under the above assay conditions was assumed to be 1 unit.

[2] = target: T2, heat resistant maltose phosphorylase (Bacillus sp. RK-1, UniProt Q84IX5); test: Inhibitor test on heat resistant maltose phosphorylase activity; assay type: biochemical; details: for activity at 1000 µM: read-out: Relative activity (%); for inhibition of the activity: 1 mM inhibitor, heat resistant maltose phosphorylase
Procedure: (§2) The enzymological properties of the heat resistant maltose phosphorylase of the invention are as follows. As the heat resistant maltose phosphorylase,one obtained in Example 1 and prepared from Bacillus sp. RK-1 was used.
(§3) In this connection, maltose phosphorylase activity was assayed according to the following method. An enzyme solution (0.4 ml), 0.06 ml of 0.5M potassium phosphate-citric acid buffer (pH 6.0), 0.6 ml of 2 w/v % maltose and 0.14 ml of distilled water were mixed, and reaction was carried out at 60° C. for 15 minutes and ceased by boiling for 10 minutes. Then, 0.02 ml of a sample was taken from the reaction-ceased solution, 3 ml of a reagent for glucose examination (Glucose CII-Test Wako; Wako Pure Chemical Industries, Ltd.) was added, reaction was carried at room temperature for 20 minutes, the absorbance at 505 nm was measured using a spectrophotometer, and the amount of glucose formed in the reaction solution was determined from the measured value. From the amount of the formed glucose, the amount of the enzyme necessitated to phosphorolyze 1 μmol of maltose in one minute is calculated, and was assumed to be 1 unit.

[3] = target: T1, heat resistant trehalose phosphorylase; test: Substrate specificity of heat resistant trehalose phosphorylase (phosphorolysis reaction, glucose formed); assay type: biochemical, Bacillus stearothermophilus SK-1; parameters: Relative activity (%): concentration or dose not given beside the values; details: for Relative activity (%): each substance as substrate of phosphorolysis by heat resistant trehalose phosphorylase, trehalose = 100; for formation of glucose: phosphorolysis reaction with the substance as substrate, heat resistant trehalose phosphorylase
Text: As the heat resistant maltose phosphorylase in the above process, there can be used the same ones as in the above process for preparation of β-glucose-1-phosphoric acid can be used. As the heat resistant trehalose phosphorylase, any one can be used so long as it can produce trehalose from maltose and phosphoric acid or a phosphate salt at one of the above reaction temperatures and at one of the above pH values, with the aid of the heat resistant maltose phosphorylase. However, there can, preferably, be used heat resistant trehalose phosphorylase having an activity of 95% or more of the one untreated after treated in a buffer of pH 6.0, at one temperature of 50° to 65° C., preferably at one temperature of 55° to 65° C., further preferably at one temperature of 60° to 65° C., particularly preferably at 65° C., for 15 minutes. As an example of heat resistant trehalose phosphorylase having such a property, there can be mentioned heat resistant trehalose phosphorylase which Bacillus stearothermophilus SK-1 found by the present inventors produces. The SK-1 strain was first deposited on Sep. 29, 1994 with National Institute of Bioscience and Human Technology, Agency of Industrial Science and Technology, the Ministry of International Trade and Industry, Japan under an accession number of FERM P-14567, and then transferred there to deposit according to Budapest Treaty on microorganisms on Jul. 17, 1996, and is assigned an accession number of FERM BP-5594. An example of preparation of the above heat resistant trehalose phosphorylase is shown in Example 4 (crude enzyme) and Reference example 1 (purified enzyme). The enzymological properties of this purified enzyme are as follows.
as §1

[4] = target: T2, heat resistant maltose phosphorylase; test: Substrate specificity of heat resistant maltose phosphorylase (phosphorolysis reaction, glucose formed); assay type: biochemical; parameters: Relative activity (%): concentration or dose not given beside the values; details: for Relative activity (%): each substance as substrate of phosphorolysis by heat resistant maltose phosphorylase, maltose = 100; for formation of glucose: phosphorolysis reaction with the substance as substrate, heat resistant maltose phosphorylase
Procedure: as §2, §3

[5] = trehalose phosphorylase activity with 1 mM inhibitor, no addition = 100
[6] = maltose phosphorylase activity with 1 mM inhibitor, no addition = 100

T1 sequence (Q8GRC3 whole entry, change not shown): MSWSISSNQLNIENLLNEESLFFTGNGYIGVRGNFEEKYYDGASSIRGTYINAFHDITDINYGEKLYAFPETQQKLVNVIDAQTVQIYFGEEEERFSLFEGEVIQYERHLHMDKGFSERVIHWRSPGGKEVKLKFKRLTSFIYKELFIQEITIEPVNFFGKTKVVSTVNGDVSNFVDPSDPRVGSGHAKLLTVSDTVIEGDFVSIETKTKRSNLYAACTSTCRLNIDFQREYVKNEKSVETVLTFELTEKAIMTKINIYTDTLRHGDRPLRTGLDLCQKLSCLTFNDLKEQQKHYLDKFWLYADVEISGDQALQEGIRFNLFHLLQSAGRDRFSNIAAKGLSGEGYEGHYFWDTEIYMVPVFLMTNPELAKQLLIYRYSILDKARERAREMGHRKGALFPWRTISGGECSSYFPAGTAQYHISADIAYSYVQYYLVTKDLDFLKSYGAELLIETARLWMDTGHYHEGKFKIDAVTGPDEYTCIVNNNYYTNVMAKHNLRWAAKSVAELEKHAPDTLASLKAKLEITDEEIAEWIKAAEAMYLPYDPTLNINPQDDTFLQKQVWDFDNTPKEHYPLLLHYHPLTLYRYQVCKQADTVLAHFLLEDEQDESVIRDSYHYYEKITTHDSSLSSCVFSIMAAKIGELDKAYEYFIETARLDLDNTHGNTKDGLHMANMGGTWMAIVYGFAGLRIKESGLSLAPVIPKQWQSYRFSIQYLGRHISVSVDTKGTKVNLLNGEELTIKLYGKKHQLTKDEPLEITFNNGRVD
T2 sequence (Q84IX5 entry or part of it, change not shown): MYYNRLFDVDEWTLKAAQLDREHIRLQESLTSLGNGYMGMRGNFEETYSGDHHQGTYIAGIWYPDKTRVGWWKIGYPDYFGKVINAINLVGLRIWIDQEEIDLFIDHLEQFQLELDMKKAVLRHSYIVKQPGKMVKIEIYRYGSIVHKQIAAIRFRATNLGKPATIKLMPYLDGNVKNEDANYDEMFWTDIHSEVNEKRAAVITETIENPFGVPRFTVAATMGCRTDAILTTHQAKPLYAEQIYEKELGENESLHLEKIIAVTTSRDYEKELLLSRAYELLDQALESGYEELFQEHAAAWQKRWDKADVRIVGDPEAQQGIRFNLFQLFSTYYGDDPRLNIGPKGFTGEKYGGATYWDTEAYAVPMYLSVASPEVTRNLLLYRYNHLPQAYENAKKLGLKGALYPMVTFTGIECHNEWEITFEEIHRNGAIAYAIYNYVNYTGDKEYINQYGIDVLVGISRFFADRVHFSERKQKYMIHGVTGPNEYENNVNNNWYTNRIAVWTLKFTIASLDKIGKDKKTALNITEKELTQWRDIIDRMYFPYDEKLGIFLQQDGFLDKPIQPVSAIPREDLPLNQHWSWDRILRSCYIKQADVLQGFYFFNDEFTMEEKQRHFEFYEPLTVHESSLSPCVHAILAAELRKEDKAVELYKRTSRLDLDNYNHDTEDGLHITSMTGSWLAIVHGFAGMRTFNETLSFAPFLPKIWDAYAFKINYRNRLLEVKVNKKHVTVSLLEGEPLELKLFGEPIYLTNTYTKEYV

[Cl-].[Cl-].[Mg+2] [MgCl2]
Relative activity (%) [1, 5]: 103% | Relative activity (%) [2, 6]: 100%

[Ca+2].[Cl-].[Cl-] [CaCl2]
Relative activity (%) [1, 5]: 102% | Relative activity (%) [2, 6]: 101%

O=C(O)c1cc[c]([Hg][Cl])cc1 [PCMB, p (Chloromercuri) benzoic acid]
Relative activity (%) [1, 5]: 0% | Relative activity (%) [2, 6]: 20%

O[C@H](CS)[C@H](O)CS (racemic) [DTT, Dithiothreitol]
activity at 1000 µM [1, 5]: 86% | activity at 1000 µM [2, 6]: 101%

O=C(O)CN(CCN(CC(=O)O)CC(=O)O)CC(=O)O [EDTA]
activity at 1000 µM [1]: 99%

[Ba+2].[OH-].[OH-] [Ba (OH)2]
Relative activity (%) [1, 5]: 106% | Relative activity (%) [2, 6]: 100%

[Cl][Hg][Cl] [HgCl2]
inhibition of the activity [1]: 99% | Relative activity (%) [1, 5]: 1% | inhibition of the activity [2]: 99% | Relative activity (%) [2, 6]: 1%

O=S(=O)([O-])[O-].[Zn+2] [ZnSO4]
inhibition of the activity [1]: 80% | Relative activity (%) [1, 5]: 20% | inhibition of the activity [2]: 37% | Relative activity (%) [2, 6]: 63%

OC[C@H]1O[C@@H](O[C@H]2[C@H](O)[C@@H](O)C(O)O[C@@H]2CO)[C@H](O)[C@@H](O)[C@@H]1O (stereo partly drawn) [Cellobiose]
Relative activity (%) [3]: 2% | formation of glucose [3]: scarcely observed | Relative activity (%) [4]: 0% | formation of glucose [4]: scarcely observed

Soluble starch
Relative activity (%) [4]: 2%

O=[N+]([O-])c1ccc(O[C@H]2O[C@H](CO)[C@@H](O)[C@H](O)[C@H]2O)cc1 [D - glucosideyl - α, p-nitrophenyl-α-D-glucoside]
Relative activity (%) [3]: 2% | formation of glucose [3]: scarcely observed | Relative activity (%) [4]: 0% | formation of glucose [4]: scarcely observed

OC[C@H]1O[C@@](CO)(O[C@H]2O[C@H](CO)[C@@H](O)[C@H](O)[C@H]2O)[C@@H](O)[C@@H]1O [Sucrose]
Relative activity (%) [3]: 1% | formation of glucose [3]: scarcely observed | Relative activity (%) [4]: 0% | formation of glucose [4]: scarcely observed

O=[N+]([O-])c1ccc(O[C@@H]2O[C@H](CO)[C@@H](O)[C@H](O)[C@H]2O)cc1 [D - glucosideyl - β, p-nitrophenyl-β-D-glucoside]
Relative activity (%) [3]: 2% | formation of glucose [3]: scarcely observed | Relative activity (%) [4]: 0% | formation of glucose [4]: scarcely observed

O=S(=O)([O-])[O-].[Cu+2] [CuSO4]
Relative activity (%) [1, 5]: 89% | Relative activity (%) [2, 6]: 91%

OC[C@H]1O[C@@H](OC[C@H]2OC(O)[C@H](O)[C@@H](O)[C@@H]2O)[C@H](O)[C@@H](O)[C@@H]1O (stereo partly drawn) [Gentiobiose]
Relative activity (%) [4]: 2%

OCCS [Mercaptoethanol]
activity at 1000 µM [1, 5]: 96% | activity at 1000 µM [2, 6]: 94%

O=C(O)CN(CCN(CC(=O)O)CC(=O)O)CC(=O)O [EDTA.2Na]
activity at 1000 µM [2]: 100%

OC[C@H]1O[C@@H](O[C@H]2[C@H](O)[C@@H](O)C(O)O[C@@H]2CO)[C@H](O)[C@@H](O)[C@H]1O (stereo partly drawn) [Lactose]
Relative activity (%) [4]: 0%

[Cl][Fe][Cl] [FeCl2]
Relative activity (%) [1, 5]: 96% | Relative activity (%) [2, 6]: 94%

O=S(=O)([O-])[O-].[Mn+2] [MnSO4]
Relative activity (%) [1, 5]: 108% | Relative activity (%) [2, 6]: 111%

CC(=O)[O-].CC(=O)[O-].[Pb+2] [Pb (CH3 COO)2]
Relative activity (%) [1, 5]: 93% | Relative activity (%) [2, 6]: 99%

OC[C@H]1O[C@@H](O[C@H]2O[C@H](CO)[C@@H](O)[C@H](O)[C@H]2O)[C@H](O)[C@@H](O)[C@@H]1O [Neotrehalose]
Relative activity (%) [3]: 1% | formation of glucose [3]: scarcely observed | Relative activity (%) [4]: 0% | formation of glucose [4]: scarcely observed

OC[C@H]1O[C@H](O[C@H]2O[C@H](CO)[C@@H](O)[C@H](O)[C@H]2O)[C@H](O)[C@@H](O)[C@@H]1O [Trehalose]
Relative activity (%) [3]: 100% | Relative activity (%) [4]: 0% | formation of glucose [4]: scarcely observed

OC[C@H]1O[C@H](O[C@H]2[C@H](O)[C@@H](O)[C@H](O)O[C@@H]2CO)[C@H](O)[C@@H](O)[C@@H]1O [Maltose]
Relative activity (%) [3]: 1% | formation of glucose [3]: scarcely observed | Relative activity (%) [4]: 100%

OC[C@H]1O[C@H](OC[C@H]2OC(O)[C@H](O)[C@@H](O)[C@@H]2O)[C@H](O)[C@@H](O)[C@@H]1O (stereo partly drawn) [Isomaltose]
Relative activity (%) [3]: 3% | formation of glucose [3]: scarcely observed | Relative activity (%) [4]: 2% | formation of glucose [4]: scarcely observed
